# Target: EcEPSPS (UniProt P0A6D3+Q04571)
# Settings: FIG. 2; surfaces incubated with 10 mM solution, then glyphosate-coated particles; Ccg2 / Ccg2_GS_EcEPSPS coated glass
# Description: The immobilised enzymes on the surface interact attractively with the particle-bound competitor, resulting in a characteristic contact area between the surface and the particle. The dissolved analyte competes with the competitor for the binding sites on the surface. […] The determination of the contact and particle radius to ascertain the adhesion energy takes place by means of reflection interference contrast microscopy.
# The surfaces were then incubated with either 10 mM glyphosate or glufosinate solutions and then with linker-functionalised particles with or without glyphosate coating.
# The surfaces were then incubated with glyphosate solutions of different concentrations and then with glyphosate-coated particles with ethylenediamine or pentaglycine linkers. […]
# The recording of the radial intensity profiles of the HGS on the functionalised surface took place in the reflection interference contrast method by means of an inverted microscope system (Olympus IX 73) with a 60× immersion objective (Olympus UPIanSAPO 60× Oil Microscope Objective). From the recorded profiles, the contact radii a of particles and surface as well as the particle radii RHES could be automatically ascertained subsequently by means of software specially developed for this purpose. According to the Johnson-Kendall-Roberts model [2], these quantities are related to the adhesion energy Wadh in the following context: […]
structure (smiles),measurement,value
"O=C(O)CNCP(=O)(O)O [glyphosate, N-(phosphonomethyl)glycine]",influence of soluble compound on the adhesion energy between glyphosate-coated particle and surface,in the range of the negative control
